{"source": "patent US12275685B2", "about": "“Oligo-benzamide analogs and their use in cancer treatment” (Board of Regents, The University of Texas System, priority 2018, dated 2025)", "key": {"[1]": {"tested_on": "triple-negative breast cancer cells (TNBC)", "test": "Growth inhibition of TNBC cells", "type": "cell-based", "from_the_text": "(§1) FIGS. 10A & 10B show effects of TK208 against cancer cells.\nTNBC is difficult to be treated and currently there are no good drugs available in the market.\n(§2) In addition, another tris-benzmaide compound TK208 was synthesized and tested against breast cancer and ovarian cancer cell lines (FIGS. 10-15). […] These compounds (e.g., TK41, TK208, TK308 (FIG. 21), TK309 (FIG. 22), TK314, TK315) are extremely potent compounds that inhibit tumor growth and kill breast and ovarian cancer cells and as such, they are superb therapeutic candidates for such diseases."}, "ovarian cancer cells": {"tested_on": "ovarian cancer cells", "test": "Growth inhibition of ovarian cancer cells", "type": "cell-based", "from_the_text": "as §1, §2"}, "OCa cells [2]": {"tested_on": "OCa cells", "test": "ER stress (ERS)/UPR induction in OCa cells, RT-PCR and western", "type": "cell-based", "protocol": "FIG. 40: Time course of induction of sXBP1 and CHOP mRNA in 4 OCa cell lines—ES2, SKOV3, OVCAR3 and OVCAR4 by ERX-208. Following treatment of OCa cell lines with 100 nM ERX-208, cells were harvested at various time points and lysates subjected to RT-PCR for both CHOP and sXBP1.\nFIG. 41: OCa cells were treated with ERX-208 for 16 h and the status of UPR proteins were determined using western blotting.\n(§3) ERX-208. […] Functionally, ERX-208 causes growth inhibition of OCa cells, as noted by MTT assays using five established OCa cells (ES2, SKOV3, A2780, TOV21G, TOV112D) and five primary OCa cells derived from HGSOC patient ascites (AS21, AS23, AS25, AS28, AS29) (FIGS. 42B-C). […] The inventor noted an IC50 of ˜50-100 nM for ERX-208 both for inducing ERS and in reducing the growth of OCa cells."}, "OCa cells [3]": {"tested_on": "OCa cells", "test": "MTT assay in OCa cells", "type": "cell-based", "protocol": "(§4) FIGS. 12A-12D show the effect of TK208 against ovarian cancer cell lines ES2 (FIGS. 12A & 12B) and SKOV3 (FIGS. 12C & 12D).\n(§5) FIGS. 42A-D: OCa cells were treated with ERX-11 (FIG. 42A) or ERX-208 (FIG. 42B). Primary OCa cells derived from ascites were treated with ERX-208 for 72 h (FIG. 42C) and cell viability by MTT assays. (FIG. 42D) Effect of ERX-208 on viability of IOSE cells was measured using MTT assays and TOV21G was used as +ve control.\nas §3"}, "[4]": {"tested_on": "normal ovarian surface epithelial cells (IOSE)", "test": "MTT assay in IOSE cells", "type": "cell-based", "protocol": "as §5, §3"}, "[5]": {"tested_on": "ES2 and SKOV3 ovarian cancer cells", "test": "Colony formation assay", "type": "cell-based", "protocol": "FIG. 43: ES2 and SKOV3 cells were treated with ERX-208 and its effect on cell survival was measured using colony formation assays. ****p<0.0001.\nas §3"}, "[6]": {"tested_on": "ES2 and SKOV3 ovarian cancer cells", "test": "Matrigel invasion chamber assay", "type": "cell-based", "protocol": "FIG. 44: ES2 and SKOV3 cells were treated with ERX-208 and its effect on invasion was measured using Matrigel invasion chamber assays. ****p<0.0001.\nas §3"}, "OCa cells [7]": {"tested_on": "OCa cells", "test": "Caspase-Glo 3/7 apoptosis assay", "type": "cell-based", "protocol": "as §4\nFIG. 45: ERX-208 effect on apoptosis of OCa cells was measured using Caspase-Glo® 3/7 Assays. ****p<0.0001.\nas §3"}, "[8]": {"tested_on": "ES2 and SKOV3 ovarian cancer cells", "test": "Cell cycle arrest", "type": "cell-based", "conditions": "S phase"}, "ES2 CDX tumors": {"tested_on": "ES2 CDX tumors", "test": "ES2 CDX tumors", "type": "in vivo, nude mice", "conditions": "15 days", "protocol": "FIG. 47: ES2/GFP/LUC cells were injected i.p. and tumors established. Mice (n=5) were treated with vehicle or ERX-208 (10 mg/kg/day/i.p). Tumor volume, tumor weight, number of tumor nodules are shown. **p<0.01,****p<0.0001.\n(§6) ERX-208 suppressed growth of ES2 CDX tumors. ES2 cells stably labelled with GFP/LUC reporter (2×10^5) were injected i.p. into nude mice. Following establishment of tumors, mice (n=5/group) were randomized and treated for 5 days/week with either 10 mg/kg/ip of ERX-208 or vehicle. […] ERX-208 is effective in reducing growth of HGSOC PDX tumors. Following establishment of PDX tumors, NSG mice (n=6/group) were randomized and treated for 5 days/week with either 10 mg/kg/ip of ERX-208 or vehicle."}, "HGSOC PDX tumors": {"tested_on": "HGSOC PDX tumors", "test": "HGSOC PDX tumors", "type": "in vivo, NSG mice", "conditions": "21 days", "protocol": "FIGS. 48A-F: OCa PDX (n=6) tumors were established in the flanks of NSG mice. When the tumors reached 200 mm^3, treatment with vehicle or 10 mg/kg/day/i.p. ERX-208 was initiated. (FIG. 48A) Tumor volume, (FIG. 48B) tumor weight, (FIG. 48C) tumors picture, and\n(FIG. 48D) body weight is shown. (FIGS. 48E-F) IHC analysis of GRP 78 as a marker of ER stress *p<0.05; **p<0.01, ****p<0.0001.\nas §6"}, "[9]": {"tested_on": "carboplatin resistant OCa cells", "test": "Chemotherapy resistant OCa cells, MTT and apoptosis assay", "type": "cell-based", "protocol": "(§7) FIGS. 49A-F: (FIGS. 49A-B) Effect of ERX-208 on chemotherapy resistant OCa cells was measured by MTT and apoptosis assay. (FIGS. 49C-F) Platinum-resistant PDX tumors were treated with vehicle or ERX-208 (10 mg/kg/day/i.p). Tumor volume (FIG. 49C), weights (FIG. 49D) tumors picture (FIG. 49E), bodyweights (FIG. 49F) are shown. ** P<0.01, ***p<0.001 ****p<0.0001.\n(§8) ERX-208 is effective in reducing growth of chemotherapy resistant OCa. OCa initially responds to chemotherapy; however, majority will develop chemotherapy resistance. […] The inventors conducted a proof of principle study using a therapy resistant HGSOC PDX model received from the UTHealth OBGYN PDX core. ERX-208 treatment resulted ˜60% reduction in tumor volume (FIGS. 49C-F)."}, "[10]": {"tested_on": "therapy resistant HGSOC PDX", "test": "Therapy resistant HGSOC PDX model", "type": "in vivo, mice", "conditions": "10 mg/kg/day/i.p", "protocol": "as §7, §8"}, "ovarian tumor": {"tested_on": "ovarian tumor", "test": "Ovarian xenograft and PDX models of TK208", "type": "in vivo, mouse", "protocol": "FIGS. 33A-H. FIGS. 33A-D show ovarian cancer xenografts (ES2) treated with vehicle or TK208 (ERX-208). Tumor volume (FIG. 33A), body weight (FIG. 33B) distribution of tumor weights at necropsy (FIG. 33C) and nodules (FIG. 33D) were graphed. FIGS. 33E-H show ovarian PDX tumors were treated with vehicle or TK208 (ERX-208). Tumor volume (FIG. 33E), distribution of tumor weights at necropsy (FIG. 33F) and tumor images (FIG. 33G) and body weight (FIG. 33H) were graphed.\nThe inventors have tested the in vivo activity of TK208 (ERX-208) using both ovarian xenograft and PDX models."}}, "note": "Where two headings read alike, the source gives them in different places.", "data": [{"smiles": "CC(C)COc1cc(C(=O)Nc2ccc(C(=O)N[C@H]3CC[C@H](C(=O)Nc4cnc5ccccc5c4)CC3)cc2OCC(C)C)ccc1NC(=O)c1ccc([N+](=O)[O-])c(OCCO)c1", "note": "[TK208]", "values": [{"measurement": "IC50", "setting": "[1]", "value": "10 to 100", "unit": "nM"}, {"measurement": "IC50", "setting": "ovarian cancer cells", "value": "10 to 100", "unit": "nM"}, {"measurement": "induction of CHOP mRNA", "setting": "OCa cells [2]; 100 nM, within 24 h", "value": "> 15", "unit": "fold"}, {"measurement": "induction of sXBP1 mRNA", "setting": "OCa cells [2]; 100 nM, within 24 h", "value": "> 10", "unit": "fold"}, {"measurement": "IC50", "setting": "OCa cells [2]; OCa cells, read-out: IC50 for inducing ERS", "value": "50 to 100", "unit": "nM"}, {"measurement": "induction of UPR components at the protein level", "setting": "OCa cells [2]; multiple OCa cell lines", "value": "induce classic UPR components peIF2a, CHOP and LC3B"}, {"measurement": "activity against OCa cells / cell viability", "setting": "OCa cells [3]", "value": "reduces cell viability"}, {"measurement": "IC50", "setting": "OCa cells [3]; read-out: IC50 in reducing the growth of OCa cells", "value": "50 to 100", "unit": "nM"}, {"measurement": "activity in IOSE", "setting": "[4]", "value": "limited activity"}, {"measurement": "colony formation", "setting": "[5]", "value": "reduces colony formation"}, {"measurement": "colony formation", "setting": "[5]; listed as ERX-208", "value": "reduced colony formation"}, {"measurement": "invasion", "setting": "[6]", "value": "reduces invasion"}, {"measurement": "invasion", "setting": "[6]; listed as ERX-208", "value": "reduced"}, {"measurement": "apoptosis", "setting": "OCa cells [7]", "value": "promotes apoptosis"}, {"measurement": "growth arrest", "setting": "[8]", "value": "promotes growth arrest"}, {"measurement": "reduction of tumor volume", "setting": "ES2 CDX tumors; 10 mg/kg/ip 5 days/week, Xenogen-IVIS", "value": "~60", "unit": "%"}, {"measurement": "body weight", "setting": "ES2 CDX tumors; 10 mg/kg/ip", "value": "no significant change in body weight"}, {"measurement": "reduction in tumor nodules", "setting": "ES2 CDX tumors; 10 mg/kg/ip", "value": "~50", "unit": "%"}, {"measurement": "reduction in tumor weight", "setting": "ES2 CDX tumors; 10 mg/kg/ip", "value": "~50", "unit": "%"}, {"measurement": "reduction of tumor volume", "setting": "HGSOC PDX tumors; 10 mg/kg/ip 5 days/week", "value": "~68", "unit": "%"}, {"measurement": "body weight", "setting": "HGSOC PDX tumors; 10 mg/kg/ip", "value": "no significant changes in body weight"}, {"measurement": "reduction in tumor weight", "setting": "HGSOC PDX tumors; 10 mg/kg/ip", "value": 60, "unit": "%"}, {"measurement": "apoptosis of carboplatin resistant OCa cells", "setting": "[9]", "value": "promoted apoptosis"}, {"measurement": "viability of carboplatin resistant OCa cells", "setting": "[9]", "value": "significantly reduced viability"}, {"measurement": "reduction in tumor volume", "setting": "[10]", "value": "~60", "unit": "%"}, {"measurement": "mouse body weight", "setting": "ovarian tumor; mouse, in vivo", "value": "no effect on mouse body weight"}, {"measurement": "reduction of ovarian tumor volume", "setting": "ovarian tumor; xenograft and PDX models", "value": "good efficacy"}]}]}
